One test has as its target GST-JNK3 (Homo sapiens, UniProt P53779). Put plainly: JNK3 in vitro assay (33P incorporation into c-Jun, SPA). It is filed as biochemical. Conditions: recombinant pre-activated GST-JNK3, biotinylated GST-c-Jun, 2 μM 33γ-ATP, 120 min RT. Here is the method: (§1) JNK2 and -3 in vitro Assays:
(§2) The phosphorylation of c-jun by JNK2 or JNK3 may be followed by monitoring the incorporation of ^33P into c-jun following the protocol below. The inhibitory activity of the compounds according to formula I, in respect of c-jun phosphorylation through JNK, is determined by calculating the phosphorylation activity of a JNK in the presence or absence of the test compounds according to formula I.
(§3) JNK3 and/or -2 assays are performed in 96 well MTT plates: incubation of 0.5 μg of recombinant, pre-activated GST-JNK3 or GST-JNK2 with 1 μg of recombinant, biotinylated GST-c-Jun and 2 μM ^33γ-ATP (2 nCi/μl), in the presence or absence of compounds according to formula I and in a reaction volume of 50 μl containing 50 mM Tris-HCl, pH 8.0; 10 mM MgCl2; 1 mM Dithiothreitol, and 100 μM NaVO4. The incubation is performed for 120 min. at R.T and stopped upon addition of 200 μl of a solution containing 250 μg of Streptavidine-coated SPA beads (Amersham, Inc.)*, 5 mM EDTA, 0.1% Triton X-100 and 50 μM ATP, in phosphate saline buffer.
(§4) After incubation for 60 minutes at RT, beads are sedimented by centrifugation at 1500×g for 5 minutes, resuspended in 200 μl of PBS containing 5 mM EDTA, 0.1% Triton X-100 and 50 μM ATP and the radioactivity measured in a scintillation β counter, following sedimentation of the beads as described above. By replacing biotinylated GST-c Jun with biotinylated GST-1ATF2 or biotinylated myelin basic protein, this assay may also be used to measure inhibition of pre-activated p38 and ERK MAP Kinases, respectively.
(§5) The values indicated in respect of JNK2 and 3 refer to the IC50 (μM), i.e. the amount necessary to achieve 50% inhibition either of JNK3 or JNK2.

The next test addresses GST-JNK2 (Homo sapiens, UniProt P45984). Nature of the test: JNK2 in vitro assay (33P incorporation into c-Jun, SPA). It is filed as biochemical. The note with it: recombinant pre-activated GST-JNK2, biotinylated GST-c-Jun, 2 μM 33γ-ATP, 120 min RT. Here is the method: as §1, §2, §3, §4, §5

We go through four molecules from patent publication US7417058B2, “Pharmaceutically active benzsulfonamide derivatives as inhibitors of protein junkinases” (Laboratoires Serono S.A., priority 2000, dated 2008).

The structures appear in SMILES notation.

Chain of GST-JNK3 (P53779 whole entry): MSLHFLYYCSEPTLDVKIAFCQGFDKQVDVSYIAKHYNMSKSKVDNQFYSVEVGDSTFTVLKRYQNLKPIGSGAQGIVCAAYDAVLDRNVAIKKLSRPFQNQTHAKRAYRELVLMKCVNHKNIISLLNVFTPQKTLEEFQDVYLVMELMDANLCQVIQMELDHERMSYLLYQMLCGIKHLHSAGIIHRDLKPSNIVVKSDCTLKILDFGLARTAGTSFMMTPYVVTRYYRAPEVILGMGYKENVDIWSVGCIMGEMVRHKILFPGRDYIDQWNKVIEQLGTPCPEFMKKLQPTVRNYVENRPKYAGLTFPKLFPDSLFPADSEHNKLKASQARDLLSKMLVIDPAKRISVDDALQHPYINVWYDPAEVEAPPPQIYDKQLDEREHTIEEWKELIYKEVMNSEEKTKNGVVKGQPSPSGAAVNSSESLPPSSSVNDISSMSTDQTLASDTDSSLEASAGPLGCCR
Chain of GST-JNK2 (P45984 whole entry): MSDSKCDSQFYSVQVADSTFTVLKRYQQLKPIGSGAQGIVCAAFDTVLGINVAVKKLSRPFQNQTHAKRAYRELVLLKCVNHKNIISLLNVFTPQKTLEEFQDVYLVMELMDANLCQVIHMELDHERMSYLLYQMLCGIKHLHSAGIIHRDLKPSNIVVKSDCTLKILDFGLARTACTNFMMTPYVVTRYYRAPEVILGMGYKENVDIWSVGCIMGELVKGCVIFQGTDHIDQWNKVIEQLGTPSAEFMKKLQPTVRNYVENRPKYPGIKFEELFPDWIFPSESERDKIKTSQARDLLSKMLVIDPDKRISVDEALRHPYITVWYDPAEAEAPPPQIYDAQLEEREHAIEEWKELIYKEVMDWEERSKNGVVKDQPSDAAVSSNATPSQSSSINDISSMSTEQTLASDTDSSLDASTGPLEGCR

In the case of `O=C(NCc1cccc(S(=O)(=O)N2CCC(Nc3cccc(S(=O)(=O)C(F)(F)F)c3)CC2)c1)c1ccc(Cl)cc1` [Example 3, 4-chloro-N-{3-[(4-{3-[(trifluoromethyl)sulfonyl]anilino}-1-piperidinyl)sulfonyl]benzyl}benzamide], the IC50 on GST-JNK3 was less than 400 nM; on GST-JNK2 it was less than 700 nM.
As for `O=C(NCc1ccc(S(=O)(=O)N2CCC(NCCc3cccc(C(F)(F)F)c3)CC2)cc1)c1ccc(Cl)cc1` [Example 11, 4-chloro-N-(4-{[4-({2-[3-(trifluoromethyl)phenyl]ethyl}amino)-1-piperidinyl]sulfonyl}benzyl)benzamide], the IC50 at GST-JNK3 is less than 400 nM; at GST-JNK2, less than 700 nM.
With `CCCCCCNC1CCN(S(=O)(=O)c2ccc(NC(=O)c3ccc(Cl)cc3)cc2)C1` (centres unmarked) [Example 28, 4-chloro-N-(4-{[3-(hexylamino)-1-pyrrolidinyl]sulfonyl}phenyl)benzamide], the figures for the IC50 on GST-JNK3 and at GST-JNK2 were less than 400 nM and less than 700 nM, respectively.
On to `O=C(NCc1ccc(S(=O)(=O)N2CCC(NCCc3cccc(C(F)(F)F)c3)C2)cc1)c1ccc(Cl)cc1` (centres unmarked) [Example 31, 4-chloro-N-(4-{[3-({2-[3-(trifluoromethyl)phenyl]ethyl)amino)-1-pyrrolidinyl]sulfonyl}benzyl)benzamide], for which the 50% inhibitory concentration (IC50) on GST-JNK3 is less than 400 nM; on GST-JNK2, less than 700 nM.

A word on the IC50: it is the concentration that gives 50% inhibition.
